# Article PMC7872314, “Modeling Bioavailable Concentrations in Zebrafish Cell Lines and Embryos Increases the Correlation of Toxicity Potencies across Test Systems” (Environmental Science & Technology, 2020)
# Like-named read-outs stand apart in the source and are kept apart here.
# Experiments:
# [1] = test system: ZF4 (fibroblasts) cell line; assay: MTS assay (MTS/BCA multiplex), NAD(P)H metabolism; format: cell-based, zebrafish (Danio rerio); details: Danio rerio, Fibroblast
# [2] = test system: ZFL (hepatocytes) cell line; assay: cells; format: cell-based, zebrafish (Danio rerio); details: Danio rerio, Hepatocyte
# [3] = test system: ZF4 (fibroblasts) cell line; assay: BCA assay (MTS/BCA multiplex), protein amount; format: cell-based, zebrafish (Danio rerio); details: Danio rerio, Fibroblast
# [4] = test system: ZFL (hepatocytes) cell line; assay: cells; format: cell-based, zebrafish (Danio rerio); details: Danio rerio, Hepatocyte; remark: listed apart in the source
# [5] = test system: ZF4 (fibroblasts) cell line; assay: ATP assay (ATP/LDH multiplex), ATP metabolism; format: cell-based, zebrafish (Danio rerio); details: Danio rerio, Fibroblast
# [6] = test system: ZFL (hepatocytes) cell line; assay: cells; format: cell-based, zebrafish (Danio rerio); details: Danio rerio, Hepatocyte; remark: listed apart in the source
# [7] = test system: ZF4 (fibroblasts) cell line; assay: alamarBlue (AB) endpoint of AB/CFDA/NR multiplex, cellular respiration; format: cell-based, zebrafish (Danio rerio); details: Danio rerio, Fibroblast
# [8] = test system: ZFL (hepatocytes) cell line; assay: cells; format: cell-based, zebrafish (Danio rerio); details: Danio rerio, Hepatocyte; remark: listed apart in the source
# [9] = test system: ZF4 (fibroblasts) cell line; assay: CFDA endpoint of AB/CFDA/NR multiplex, membrane stability; format: cell-based, zebrafish (Danio rerio); details: Danio rerio, Fibroblast
# [10] = test system: ZFL (hepatocytes) cell line; assay: cells; format: cell-based, zebrafish (Danio rerio); details: Danio rerio, Hepatocyte; remark: listed apart in the source
# [11] = test system: ZF4 (fibroblasts) cell line; assay: Neutral red, absorbance (NRa), AB/CFDA/NR multiplex, lysosome stability; format: cell-based, zebrafish (Danio rerio); details: Danio rerio, Fibroblast
# [12] = test system: ZFL (hepatocytes) cell line; assay: cells; format: cell-based, zebrafish (Danio rerio); details: Danio rerio, Hepatocyte; remark: listed apart in the source
# [13] = test system: ZF4 (fibroblasts) cell line; assay: Neutral red, fluorescence (NRf), AB/CFDA/NR multiplex, lysosome stability; format: cell-based, zebrafish (Danio rerio); details: Danio rerio, Fibroblast
# [14] = test system: ZFL (hepatocytes) cell line; assay: cells; format: cell-based, zebrafish (Danio rerio); details: Danio rerio, Hepatocyte; remark: listed apart in the source
# zebrafish embryos [15] = assay: animal or person; format: in vivo, zebrafish (Danio rerio); details: for EC50: Danio rerio
# ZF4 and ZFL cell lines = assay: Cytotoxicity assays, all endpoints, both cell lines (mean/range); format: cell-based, zebrafish (Danio rerio); details: 48 h, mean of all cytotoxicity endpoints (without LDH) in ZF4 and ZFL
# [16] = test system: zebrafish cell lines vs zebrafish embryo; assay: Potency ratios IC50;x/EC50;x (cytotoxicity assays vs mFET); parameters: species or system zebrafish (Danio rerio)
# zebrafish embryos [17] = test system: zebrafish embryos; parameters: method as in earlier work; details: nominal, cited from earlier work
# [18] = test system: diverse mammalian cell assay results; parameters: method as in https://comptox.epa.gov/dashboard/; details: COMPTOX; ref https://comptox.epa.gov/dashboard/; read-out: median AC50; cited from earlier work
# [19] = ref Comptox, PubChem or DrugBank; cited from earlier work
structure (smiles),measurement,setting,value
"COC(=O)Nc1nc2ccc(Sc3ccccc3)cc2[nH]1 [Fenbendazole, fenbendazole]",IC50,"[1]; MTS - ZF4, log10 of IC50, read-out: LogIC50 (converted)",5.84 µM
same,IC50,"[1]; MTS - ZF4, read-out: IC50",5.84 µM
same,IC50,"[1]; ZF4, 48 h exposure, nominal, log10, read-out: logIC50 (log10 IC50;nom) MTS (converted)",5.89 µM
same,IC50,"[1]; ZF4, 48 h exposure, nominal, read-out: IC50;nom MTS",5.84 µM
same,IC50,"[2]; MTS - ZFL, log10 of IC50, read-out: LogIC50 (converted)",166 nM
same,IC50,"[2]; MTS - ZFL, read-out: IC50",166 nM
same,IC50,"[2]; ZFL, 48 h exposure, nominal, log10, read-out: logIC50 (log10 IC50;nom) MTS (converted)",166 nM
same,IC50,"[2]; ZFL, 48 h exposure, nominal, read-out: IC50;nom MTS",166 nM
same,IC50,"[3]; BCA - ZF4, log10 of IC50, read-out: LogIC50 (converted)",1150 nM
same,IC50,"[3]; BCA - ZF4, read-out: IC50",1150 nM
same,IC50,"[3]; ZF4, 48 h exposure, nominal, log10, read-out: logIC50 (log10 IC50;nom) BCA (converted)",1150 nM
same,IC50,"[3]; ZF4, 48 h exposure, nominal, read-out: IC50;nom BCA",1150 nM
same,IC50,"[4]; BCA - ZFL, log10 of IC50, read-out: LogIC50 (converted)",125 nM
same,IC50,"[4]; BCA - ZFL, read-out: IC50",125 nM
same,IC50,"[4]; ZFL, 48 h exposure, nominal, log10, read-out: logIC50 (log10 IC50;nom) BCA (converted)",126 nM
same,IC50,"[4]; ZFL, 48 h exposure, nominal, read-out: IC50;nom BCA",125 nM
same,IC50,"[5]; ATP - ZF4, log10 of IC50, read-out: LogIC50 (converted)",7.49 µM
same,IC50,"[5]; ATP - ZF4, read-out: IC50",7.49 µM
same,IC50,"[5]; ZF4, 48 h exposure, nominal, log10, read-out: logIC50 (log10 IC50;nom) ATP (converted)",7.41 µM
same,IC50,"[5]; ZF4, 48 h exposure, nominal, read-out: IC50;nom ATP",7.49 µM
same,IC50,"[6]; ATP - ZFL, log10 of IC50, read-out: LogIC50 (converted)",9.85 µM
same,IC50,"[6]; ATP - ZFL, read-out: IC50",9.85 µM
same,IC50,"[6]; ZFL, 48 h exposure, nominal, log10, read-out: logIC50 (log10 IC50;nom) ATP (converted)",9.77 µM
same,IC50,"[6]; ZFL, 48 h exposure, nominal, read-out: IC50;nom ATP",9.85 µM
same,IC50,"[7]; AB - ZF4, log10 of IC50, read-out: LogIC50 (converted)",3.57 µM
same,IC50,"[7]; AB - ZF4, read-out: IC50",3.57 µM
same,IC50,"[7]; ZF4, 48 h exposure, nominal, log10, read-out: logIC50 (log10 IC50;nom) AB (converted)",3.55 µM
same,IC50,"[7]; ZF4, 48 h exposure, nominal, read-out: IC50;nom AB",3.57 µM
same,IC50,"[8]; AB - ZFL, log10 of IC50, read-out: LogIC50 (converted)",985 nM
same,IC50,"[8]; AB - ZFL, read-out: IC50",985 nM
same,IC50,"[8]; ZFL, 48 h exposure, nominal, log10, read-out: logIC50 (log10 IC50;nom) AB (converted)",977 nM
same,IC50,"[8]; ZFL, 48 h exposure, nominal, read-out: IC50;nom AB",985 nM
same,IC50,"[9]; CFDA - ZF4, log10 of IC50, read-out: LogIC50 (converted)",49.5 µM
same,IC50,"[9]; CFDA - ZF4, read-out: IC50",49.5 µM
same,IC50,"[9]; ZF4, 48 h exposure, nominal, log10, read-out: logIC50 (log10 IC50;nom) CFDA (converted)",49 µM
same,IC50,"[9]; ZF4, 48 h exposure, nominal, read-out: IC50;nom CFDA",49.5 µM
same,IC50,"[10]; CFDA - ZFL, log10 of IC50, read-out: LogIC50 (converted)",21.4 µM
same,IC50,"[10]; CFDA - ZFL, read-out: IC50",21.4 µM
same,IC50,"[10]; ZFL, 48 h exposure, nominal, log10, read-out: logIC50 (log10 IC50;nom) CFDA (converted)",21.4 µM
same,IC50,"[10]; ZFL, 48 h exposure, nominal, read-out: IC50;nom CFDA",21.4 µM
same,IC50,"[11]; NR-abs - ZF4, log10 of IC50, read-out: LogIC50 (converted)",1550 nM
same,IC50,"[11]; NR-abs - ZF4, read-out: IC50",1550 nM
same,IC50,"[11]; ZF4, 48 h exposure, nominal, log10, read-out: logIC50 (log10 IC50;nom) NRa (converted)",1550 nM
same,IC50,"[11]; ZF4, 48 h exposure, nominal, read-out: IC50;nom NRa",1550 nM
same,IC50,"[11]; ZF4 cell line, NRa endpoint, nominal, read-out: IC50;nom",0.46 µg/mL
same,IC50,"[12]; NR-abs - ZFL, log10 of IC50, read-out: LogIC50 (converted)",532 nM
same,IC50,"[12]; NR-abs - ZFL, read-out: IC50",532 nM
same,IC50,"[12]; ZFL, 48 h exposure, nominal, log10, read-out: logIC50 (log10 IC50;nom) NRa (converted)",537 nM
same,IC50,"[12]; ZFL, 48 h exposure, nominal, read-out: IC50;nom NRa",532 nM
same,IC50,"[13]; NR-fluo - ZF4, log10 of IC50, read-out: LogIC50 (converted)",10.4 µM
same,IC50,"[13]; NR-fluo - ZF4, read-out: IC50",10.4 µM
same,IC50,"[13]; ZF4, 48 h exposure, nominal, log10, read-out: logIC50 (log10 IC50;nom) NRf (converted)",10.5 µM
same,IC50,"[13]; ZF4, 48 h exposure, nominal, read-out: IC50;nom NRf",10.4 µM
same,IC50,"[14]; NR-fluo - ZFL, log10 of IC50, read-out: LogIC50 (converted)",584 nM
same,IC50,"[14]; NR-fluo - ZFL, read-out: IC50",584 nM
same,IC50,"[14]; ZFL, 48 h exposure, nominal, log10, read-out: logIC50 (log10 IC50;nom) NRf (converted)",589 nM
same,IC50,"[14]; ZFL, 48 h exposure, nominal, read-out: IC50;nom NRf",584 nM
same,difference in toxicity (EC50;nom) between 48 hpf and 144 hpf,zebrafish embryos [15]; 48 hpf time point less sensitive than 144 hpf,approximately the same
same,log EC50;nom (mFET),"zebrafish embryos [15]; 48 hpf, nominal, log10, listed as Fen",-7.115 M
same,EC50,"zebrafish embryos [15]; 48 hpf, nominal, log10, read-out: log EC50;nom (mFET) (converted)",77.6 nM
same,EC50,"zebrafish embryos [15]; 48 hpf, nominal, read-out: EC50;nom (embryo)",0.02 µg/mL
same,EC50,zebrafish embryos [15]; read-out: EC50 48hpf,76.8 nM
same,EC50,zebrafish embryos [15]; read-out: EC50;nom (mFET),76.8 nM
same,IC50,"ZF4 and ZFL cell lines; Danio rerio, log10, read-out: Mean log IC50nom (converted)",2400 nM
same,Mean log IC50nom,"ZF4 and ZFL cell lines; log10, listed as Fen",-5.623 M
same,potency ratio IC50;nom/EC50;nom (median),"[16]; median over cytotoxicity endpoints, nominal, 48 h cells / 48 hpf mFET",33.3
same,difference in sensitivity between embryo (EC50;nom) and cells (IC50;nom),"[16]; nominal concentrations, higher potency in the mFET",two to three log-scales more sensitive in the mFET
same,EC50,"zebrafish embryos [17]; 144 hpf, converted",80.2 nM
same,logEC50 144 hpf,zebrafish embryos [17]; log10,-7.0959 M
same,AC50,[18],900 nM
same,BCF,[19],1.18E+03
same,Physiological charge,[19],0
same,Water Solubility,[19],insoluble
same,logKoa,[19],9.49
same,logKow,[19],3.21
same,pKa (Strongest Acidic),[19],9.59
same,pKa (Strongest Basic),[19],4.06
same,w_solubility (water solubility),[19],26.7 µM
